Converted amounts (≈) assume the structure as drawn. Where two headings read alike, the source gives them in different places.
Assays:
Assay type in all cases: cell-based
[1] = system: S. pneumoniae 157E - Strep; assay: Antibacterial MIC, CLSI broth microdilution; conditions: Streptococcus pneumoniae, 157ESTREP; 35° C., 18-24 hours; lysed horse blood
Description: (§1) Grain (−) and gram (+) antibacterial minimum inhibitory concentration (MIC) values (μg/mL) were obtained using CLSI methodology for anti-bacterial susceptibility testing. On each day of testing, serial dilutions of compounds were prepared in microdilution plates using a Tecan robotic workstation. Mueller Hinton broth cultures of representative sensitive and resistant gram negative strains were grown or adjusted to match the turbidity of a 0.5 McFarland standard. 1:200 dilutions were made in an appropriate broth (cation supplemented Mueller Hinton broth) to allow a final inoculum of 1×10^5 cfu. Plates were incubated at 35° C. in ambient air for 18-24 hours, were read spectrophotometrically and checked manually for evidence of bacterial growth. The lowest dilution of compound that inhibited growth was recorded as the MIC. Lysed horse blood was used to supplement broth for testing S. pneumoniae. The MIC's for each compound were assessed against S. aureus, S. pneumoniae, P. acnes, E. coli and B. theta.

E. coli ATCC 25922 = assay: Antibacterial MIC, CLSI broth microdilution; conditions: Escherichia coli, ATCC25922; 35° C., 18-24 hours
Description: as §1

[2] = system: B. thetaiotaomicron ATCC 29741; assay: Antibacterial MIC, CLSI broth microdilution; conditions: Bacteroides thetaiotaomicron
Description: as §1

E. coli MG 1655 = assay: Antibacterial MIC, CLSI broth microdilution; conditions: Escherichia coli, MG1655; 35° C., 18-24 hours
Description: as §1

P. acnes ATCC 11827 = assay: Antibacterial MIC, CLSI broth microdilution; conditions: Cutibacterium acnes, ATCC11827; 35° C., 18-24 hours
Description: as §1

S. aureus RN450 = assay: Antibacterial MIC, CLSI broth microdilution; conditions: Staphylococcus aureus, RN450; 35° C., 18-24 hours
Description: as §1

P. acnes ATCC 6919 = assay: Antibacterial MIC, CLSI broth microdilution; conditions: Cutibacterium acnes, ATCC6919; 35° C., 18-24 hours
Description: as §1

in vitro = assay: in vitro
Description: Mammalian cell cytotoxicity was assessed to evaluate potential in vivo risks associated with the tetracycline compounds of the invention. A soluble, non-toxic redox dye (“Resazurin”; Alamar Blue) was used to assess a tetracycline compound's effect on cellular metabolism. At the onset of the experiment, cultures of mammalian COS-1 or CHO cells were washed, trypsinized, and harvested. […] On the next day, serial dilutions of test drug were prepared under sterile conditions and transferred to cell plates. Plates were then incubated under the above conditions for 24 hours. Following the incubation period, the media/drug was aspirated, and 50 μL of resazurin was added. Plates were then incubated under the above conditions for 2 hours and then in the dark at room temperature for an additional 30 minutes. Fluorescence measurements were taken (excitation 535 nm, emission 590 nm) and toxic effects in treated versus control cells were compared based on the degree of fluorescence in each well.

[3] = ATCC29741, read-out: MIC B. thetaiotaomicron ATCC 29741
[4] = ATCC29741, 35° C., 18-24 hours, read-out: MIC B. thetaiotaomicron ATCC 29741

Row | MIC [1] [µg/mL] | MIC (E. coli ATCC 25922) [µg/mL] | MIC (E. coli MG 1655) [µg/mL] | MIC (P. acnes ATCC 11827) [µg/mL] | MIC (S. aureus RN450) [µg/mL] | MIC (P. acnes ATCC 6919) [µg/mL] | IC50 at 24 h (in vitro; African green monkey) [µg/mL] | IC50 at 24 h (in vitro; Chinese hamster) [µg/mL] | MIC [2, 4] [µg/mL] | SMILES | MIC [2, 3] [µg/mL]
1 | < 4 | 4 to 8 (≈ 7.19 to 14.4 µM) | 4 to 8 (≈ 7.19 to 14.4 µM) | < 4 | < 4 | < 4 | < 35 | < 35 | 4 to 8 (≈ 7.19 to 14.4 µM) | CCO/N=C(\C)CN(C)Cc1ccc(O)c2c1C[C@H]1C[C@H]3[C@H](N(C)C)C(O)=C(C(N)=O)C(=O)[C@@]3(O)C(O)=C1C2=O [AL, (4S,4aS,5aR,12aS)-4-Dimethylamino-7-[(2-ethoxyimino-propyl)-methyl-amino]-methyl-3,10,12,12a-tetrahydroxy-1,11-dioxo-1,4,4a,5,5a,6,11,12a-octahydro-naphthacene-2-carboxylic acid amide] | –
2 | < 4 | 4 to 8 (≈ 7.53 to 15.1 µM) | 4 to 8 (≈ 7.53 to 15.1 µM) | < 4 | < 4 | < 4 | < 35 | < 35 | < 4 | COC(=O)CONCc1ccc(O)c2c1C[C@H]1C[C@H]3[C@H](N(C)C)C(O)=C(C(N)=O)C(=O)[C@@]3(O)C(O)=C1C2=O [ED] | –
3 | < 4 | < 4 | 4 to 8 (≈ 6.68 to 13.4 µM) | < 4 | < 4 | < 4 | > 75 | > 75 | < 4 | CCO/N=C(\C)c1cc(CNCC(C)(C)C)c(O)c2c1C[C@H]1C[C@H]3[C@H](N(C)C)C(O)=C(C(N)=O)C(=O)[C@@]3(O)C(O)=C1C2=O [N] | –
4 | < 4 | 4 to 8 (≈ 7.77 to 15.5 µM) | 4 to 8 (≈ 7.77 to 15.5 µM) | < 4 | < 4 | < 4 | > 75 | > 75 | > 8 | CCNN(CC)Cc1ccc(O)c2c1C[C@H]1C[C@H]3[C@H](N(C)C)C(O)=C(C(N)=O)C(=O)[C@@]3(O)C(O)=C1C2=O [Z, (4S,4aS,5aR,12aS)-7-(N,N″-Diethyl-hydrazinomethyl)-4-dimethylamino-3,10,12,12a-tetrahydroxy-1,11-dioxo-1,4,4a,5,5a,6,11,12a-octahydro-naphthacene-2-carboxylic acid amide] | –
5 | < 4 | < 4 | < 4 | < 4 | < 4 | < 4 | < 35 | < 35 | < 4 | CN(C)[C@@H]1C(O)=C(C(N)=O)C(=O)[C@@]2(O)C(O)=C3C(=O)c4c(O)ccc(/C=N/NC(C)(C)C)c4C[C@H]3C[C@@H]12 [X] | –
6 | < 4 | > 8 | > 8 | 4 to 8 (≈ 9.08 to 18.2 µM) | < 4 | 4 to 8 (≈ 9.08 to 18.2 µM) | > 75 | > 75 | > 8 | CC(=O)c1cccc2c1C[C@H]1C[C@H]3[C@@H](N(C)C)C(O)=C(C(N)=O)C(=O)[C@@]3(O)C(O)=C1C2=O [D] | –
7 | 4 to 8 (≈ 8.2 to 16.4 µM) | > 8 | > 8 | < 4 | 4 to 8 (≈ 8.2 to 16.4 µM) | < 4 | > 75 | > 75 | 4 to 8 (≈ 8.2 to 16.4 µM) | CCONCc1ccc(O)c2c1C[C@H]1C[C@H]3[C@@H](N(C)C)C(O)=C(C(N)=O)C(=O)[C@@]3(O)C(O)=C1C2=O [AM] | –
8 | < 4 | < 4 | < 4 | < 4 | < 4 | < 4 | < 35 | < 35 | 4 to 8 (≈ 8.34 to 16.7 µM) | CN(C)[C@@H]1C(O)=C(C(N)=O)C(=O)[C@@]2(O)C(O)=C3C(=O)c4c(O)ccc(-c5ccc[nH]5)c4C[C@H]3C[C@@H]12 [T, (4S,4aS,5aR,12aS)-4-Dimethylamino-3,10,12,12a-tetrahydroxy-1,11-dioxo-7-(1H-pyrrol-2-yl)-1,4,4a,5,5a,6,11,12a-octahydro-naphthacene-2-carboxylic acid amide] | –
9 | < 4 | < 4 | 4 to 8 (≈ 8.01 to 16 µM) | < 4 | < 4 | < 4 | > 75 | 35 to 75 (≈ 70.1 to 150 µM) | 4 to 8 (≈ 8.01 to 16 µM) | CN(C)[C@@H]1C(O)=C(C(N)=O)C(=O)[C@@]2(O)C(O)=C3C(=O)c4c(O)ccc(CN5CCCO5)c4C[C@H]3C[C@@H]12 [U] | –
10 | < 4 | < 4 | < 4 | < 4 | < 4 | < 4 | < 35 | < 35 | < 4 | CN(C)[C@@H]1C(O)=C(C(N)=O)C(=O)[C@@]2(O)C(O)=C3C(=O)c4c(O)ccc(-c5nccs5)c4C[C@H]3C[C@@H]12 [L] | –
11 | < 4 | < 4 | < 4 | < 4 | < 4 | < 4 | < 35 | < 35 | < 4 | CN(C)[C@@H]1C(O)=C(C(N)=O)C(=O)[C@@]2(O)C(O)=C3C(=O)c4c(O)ccc(-c5cnoc5)c4C[C@H]3C[C@@H]12 [K] | –
12 | < 4 | > 8 | > 8 | < 4 | < 4 | < 4 | < 35 | < 35 | 4 to 8 (≈ 7.37 to 14.7 µM) | C/C(=N\OC(C)(C)C)c1cc(N)c(O)c2c1C[C@H]1C[C@H]3[C@@H](N(C)C)C(O)=C(C(N)=O)C(=O)[C@@]3(O)C(O)=C1C2=O [R] | –
13 | < 4 | > 8 | > 8 | 4 to 8 (≈ 8.39 to 16.8 µM) | < 4 | 4 to 8 (≈ 8.39 to 16.8 µM) | > 75 | > 75 | > 8 | CN(C)[C@H]1C(O)=C(C(N)=O)C(=O)[C@@]2(O)C(O)=C3C(=O)c4cccc(-c5ncccn5)c4C[C@H]3C[C@@H]12 [H] | –
14 | 4 to 8 (≈ 7.64 to 15.3 µM) | > 8 | > 8 | < 4 | < 4 | < 4 | > 75 | > 75 | 4 to 8 (≈ 7.64 to 15.3 µM) | CN(C)[C@H]1C(O)=C(C(N)=O)C(=O)[C@@]2(O)C(O)=C3C(=O)c4c(O)ccc(CNOCC(F)F)c4C[C@H]3C[C@@H]12 [DY] | –
15 | < 4 | 4 to 8 (≈ 9.08 to 18.2 µM) | > 8 | < 4 | < 4 | < 4 | > 75 | > 75 | > 8 | CC(=O)c1cccc2c1C[C@H]1C[C@H]3[C@H](N(C)C)C(O)=C(C(N)=O)C(=O)[C@@]3(O)C(O)=C1C2=O [E] | –

Row | SMILES | MIC [1] [µg/mL] | MIC (E. coli ATCC 25922) [µg/mL] | MIC (E. coli MG 1655) [µg/mL] | MIC (P. acnes ATCC 11827) [µg/mL] | MIC (S. aureus RN450) [µg/mL] | MIC (P. acnes ATCC 6919) [µg/mL] | IC50 at 24 h (in vitro; African green monkey) [µg/mL] | IC50 at 24 h (in vitro; Chinese hamster) [µg/mL] | MIC [2, 4] [µg/mL] | MIC [2, 3] [µg/mL]
16 | CON(C)Cc1ccc2c(c1O)C(=O)C1=C(O)[C@]3(O)C(=O)C(C(N)=O)=C(O)[C@@H](N(C)C)[C@@H]3C[C@@H]1C2 [GL] | 4 to 8 (≈ 8.2 to 16.4 µM) | > 8 | > 8 | 4 to 8 (≈ 8.2 to 16.4 µM) | 4 to 8 (≈ 8.2 to 16.4 µM) | 4 to 8 (≈ 8.2 to 16.4 µM) | 35 to 75 (≈ 71.8 to 154 µM) | 35 to 75 (≈ 71.8 to 154 µM) | – | 4 to 8 (≈ 8.2 to 16.4 µM)
17 | CON(C)Cc1ccc(O)c2c1C[C@H]1C[C@H]3[C@@H](N(C)C)C(O)=C(C(N)=O)C(=O)[C@@]3(O)C(O)=C1C2=O [Y] | 4 to 8 (≈ 8.2 to 16.4 µM) | > 8 | > 8 | < 4 | < 4 | < 4 | > 75 | > 75 | – | > 8
